pEC50, pIC50: −log10 of the molar value.
How the values were obtained:
Rat cortical neurons [1] = test: Neurite Outgrowth Assay (Procedure A); type: cell-based; details: 1 hour treatment at DIV 4, analyzed DIV 7
Text: Neurite outgrowth assay. Changes in the pattern of neurite outgrowth have been implicated in neurodegenerative disorders as well as traumatic injuries. The discovery of new compounds that can positively affect neuritogenesis are important for developing new therapeutics for neurological diseases. Measurement of neurite outgrowth of rat cortical neurons using an automated image-based assay is used to determine the neuroplastic effects of the compounds provided herein. In some embodiments, a compound provided herein increases the pattern of neurite outgrowth. In some embodiments, a compound provided herein increases neurite average length compared to a control. In some embodiments, a compound provided herein increases neurite branch points compared to a control. In some embodiments, a compound provided herein increases neurite average length and neurite branch points compared to a control.
In some embodiments, the plastogenic potential of compounds provided herein is assessed by measuring the changes in neurite development. In some embodiments, the plastogenic potential (as measured by Neurite Outgrowth Procedure A) of the compounds is shown in Table 10.
Neurite Outgrowth Assay (Procedure A). Rat cortical neurons (20,000 cells/well) were freshly isolated from embryonic day 18 rats and cultured in Neurobasal Medium (+B27). The cultured cells were plated in 96 well-plates (avoiding external wells). At DIV 4, the neurons were treated with compound or control (10 μM) for 1 hour followed by complete washout of the compound. At DIV 7, the neurons were analyzed. The experiments were performed in triplicate. Neurite outgrowth was measured analyzing the following parameters: Number of Cell Bodies, total neurite length (pixels), Root Count, Segments, Extremities Count and node points. Changes in the pattern of neurite outgrowth of the neurons were analyzed by immunocytochemistry against […]. Pictures were acquired by the CellInsight CX7 from Thermo Fisher and analyzed using its software. Results generated in the equipment were maximum neurite length, extremity count, root count, dendrite branch points, and total neurite length. The results were compared the percent of DMSO control, representing the percentage of outgrowth compare to vehicle control in neuronal outgrowth.

5HT2A [2] = target: T1, 5HT2A (Homo sapiens, UniProt P28223); test: Serotonin 5-HT2A in vitro cellular IPOne agonism assay; type: cell-based; parameters: host or cells: CHO-K1; details: CHO-K1 cells, IPOne HTRF; read-out: 5-HT2A IPOne Agonism Activity
T1 sequence (P28223 whole entry): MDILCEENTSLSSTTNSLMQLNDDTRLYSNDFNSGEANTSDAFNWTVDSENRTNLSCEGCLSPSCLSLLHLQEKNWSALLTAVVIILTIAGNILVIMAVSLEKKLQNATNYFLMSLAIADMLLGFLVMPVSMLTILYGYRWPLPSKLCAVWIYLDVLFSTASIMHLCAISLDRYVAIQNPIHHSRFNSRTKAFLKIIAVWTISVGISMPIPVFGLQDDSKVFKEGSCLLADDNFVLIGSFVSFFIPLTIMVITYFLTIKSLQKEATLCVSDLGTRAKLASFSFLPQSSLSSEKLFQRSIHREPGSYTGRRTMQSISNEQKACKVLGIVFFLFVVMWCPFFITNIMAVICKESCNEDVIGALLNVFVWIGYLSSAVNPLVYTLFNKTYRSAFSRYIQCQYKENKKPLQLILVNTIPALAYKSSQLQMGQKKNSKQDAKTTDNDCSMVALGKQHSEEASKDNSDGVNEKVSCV
Description: Serotonin 5-HT2A In Vitro Cellular IPOne Agonism Assay. The 5-HT2A IPOne HTRF assay was performed at Epics Therapeutics S.A. (Belgium, FAST-0505I) using conventional methods. Briefly, CHO-K1 cells expressing human recombinant 5-HT2A receptor grown to mid-log phase in culture media without antibiotics were detached with PBS-EDTA, centrifuged, and resuspended in medium without antibiotics buffer. 20,000 cells are distributed in a 96 well plate and incubated overnight at 37° C. with 5% CO2.
For agonist testing, the medium is removed and 20 μl of assay buffer plus 20 μl of test compound or reference agonist are added in each well. The plate is incubated for 60 min. at 37° C. with 5% CO2.
After addition of the lysis buffer containing IP1-d2 and anti-IP1 cryptate detection reagents, plates are incubated 1-hour at room temperature, and fluorescence ratios are measured according to the manufacturer specification, with the HTRF kit.
(§1) The compounds provided herein were tested in the Serotonin 5-HT2A and 5-HT2C in vitro radioligand binding and cellular IPOne agonism assays. The binding and agonism functional potencies of several compound provided herein compounds (as indicated by their IC50s or EC50s) are shown in Table 11.

5HT2A [3] = target: T1, 5HT2A; test: cell-based
Description: Cell lines were expanded from freezer stocks according to standard procedures. Cells were seeded in a total volume of 20 μL into black-walled, clear-bottom, Poly-D-lysine coated 384-well microplates and incubated at 37° C. for the appropriate time prior to testing. Assays were performed in 1× Dye Loading Buffer consisting of 1× Dye, 1× Additive A and 2.5 mM Probenecid in HBSS/20 mM Hepes. Probenicid was prepared fresh. Cells were loaded with dye prior to testing. Media was aspirated from cells and replaced with 20 μL Dye Loading Buffer. Cells are incubated for 30-60 minutes at 37° C.
For agonist determination, cells were incubated with sample to induce response. After dye loading, cells were removed from the incubator and 10 μL HBSS/20 mM Hepes was added. […] Cells were incubated for 30 minutes at room temperature in the dark to equilibrate plate temperature. Intermediate dilution of sample stocks was performed to generate 4× sample in assay buffer. Compound agonist activity was measured on a FLIPR Tetra (MDS). Calcium mobilization is monitored for 2 minutes and 10 μL 4× sample in HBSS/20 mM Hepes was added to the cells 5 seconds into the assay.
Compound activity was analyzed using CBIS data analysis suite (ChemInnovation, CA). For agonist mode assays, percentage activity was calculated using the following formula:
% Activity=100%×(mean RFU of test sample−mean RFU of vehicle control)/(mean MAX RFU control ligand −mean RFU of vehicle control).

Rat cortical neurons [4] = test: Neurite Outgrowth in Primary Neuronal Cultures Assay (Procedure B); type: cell-based; parameters: key: A: Statistically significant mean increase as a percent of DMSO control at 10 μM or less; B: No statistically significant mean increase as a percent of DMSO control at 10 μM or less; details: 72 h, percent of DMSO control at 10 μM or less
Text: Neurite Outgrowth in Primary Neuronal Cultures Assay (Procedure B). Changes in the pattern of neurite outgrowth have been implicated in psychiatric and neurodegenerative disorders as well as traumatic injuries. The discovery of new compounds that can positively affect neuritogenesis are important for developing new therapeutics for neurological diseases. Measurement of neurite outgrowth of rat cortical neurons using an automated image-based assay was used to determine the neuroplastic effects of the compounds of the present invention. The neurite outgrowth assay was performed at Neurofit SAS (France) as described below.
Pregnant Wistar rats (Janvier; France) were used for the study. They were delivered 6 days before their use. Upon arrival at Neurofit animal facility, they were housed one per cage and maintained in a room with controlled temperature (21-22° C.) and a reversed light-dark cycle (12 h/12 h; lights on: 17:30-05:30; lights off: 05:30-17:30) with food and water available ad libitum.
Female Wistar rats of 17 days gestation were killed by cervical dislocation and the fetuses were removed from the uterus. Their brains were placed in ice-cold medium of Leibovitz (L15, Gibco, Fisher bioblock, France). Cortices were dissected and meninges were carefully removed. The cortical neurons were dissociated by trypsinization for 30 min at 37° C. (trypsin-EDTA, Gibco) in presence of 0.1 mg/ml DNAse I (Roche, France). The reaction was stopped by addition of Dulbecco's Modified Eagle Medium (DMEM; Gibco) with 10% of fetal bovine serum (FBS; Gibco). The suspension was triturated with a 10-ml pipette and using a needle syringe 21G and centrifuged at 350×g for 10 min at room temperature. The pellet of dissociated cells was resuspended in a medium consisting of Neurobasal (Gibco) supplemented with 2% B27 supplement (Gibco), 0.5 mM L-Glutamine (Gibco), an antibiotic-antimicotic mixture. Viable cells were counted in a Neubauer cytometer using the trypan blue exclusion test (Sigma). Cells were seeded at a density of 10000 cells per well in 96-well plate (Costar) precoated with poly-L-lysine. Test compound at different concentrations were added to the cultures. Donepezil (positive control) was tested at 250 nM.
After 72 h (3 days) of plating, cultures were fixed with paraformaldehyde in PBS (4%, Sigma) for 30 min at 4° C. Then, cells were successively permeabilized with 0.1% Triton X100 for 30 min, saturated with PBS containing 3% of BSA and were incubated 1 h with anti-beta III tubulin antibody (Sigma) at 1/10 000 in PBS containing 0.5% of BSA. Cells were washed three times with PBS containing 0.5% of BSA, and they were incubated 1 h with goat anti-mouse antibody coupled with AF488 (Invitrogen A11001) diluted at 1/1000 in PBS containing 0.5% of BSA. Finally, nuclei were staining with DAPI 1 mg/ml at 1/1000 in PBS containing 0.5% of BSA. After rinsing with PBS, the plate was filmed and neurite networks were examined and analyzed using High-Content Screening (CellInsight, Thermo Scientific). The average number of neurites per neuron and the average total length of neurites per neuron were the main parameters analyzed. Analysis of data was performed using analysis of variance (ANOVA). The Fisher's Protected Least Significant Difference test was used for multiple comparisons. A p value<0.05 was considered significant. The software used is StatView 5.0 from SAS Institut.
In some embodiments, a compound of the present invention increases the pattern of neurite outgrowth. In some embodiments, a compound of the present invention increases neurite average length compared to a control. In some embodiments, a compound of the present invention increases neurite branch points compared to a control.

5HT2A [5] = target: T1, 5HT2A; test: Serotonin 5-HT2A in vitro radioligand binding competition assay ([3H]-DOI); parameters: purchased Epics Therapeutics S.A. (Belgium) FAST-0505B; details: [3H]-DOI competition, membrane extracts; read-out: 5-HT2A Radioligand Binding Activity
Description: Serotonin 5-HT2A In Vitro Radioligand Binding Competition Assay. The 5-HT2A radioligand binding competition assay was performed at Epics Therapeutics S.A. (Belgium, FAST-0505B) using conventional methods. Briefly, competition binding is performed in duplicate in the wells of a 96 well plate (Master Block, Greiner, 786201) containing binding buffer (optimized for each receptor), membrane extracts (amount of protein/well optimized for each receptor), radiotracer [^3H]-DOI (final concentration optimized for each receptor) and test compound. Nonspecific binding is determined by co-incubation with 200-fold excess of cold competitor. The samples are incubated in a final volume of 0.1 ml at a temperature and for a duration optimized for each receptor and then filtered over filter plates. Filters are washed six times with 0.5 ml of ice-cold washing buffer (optimized for each receptor) and 50 μl of Microscint 20 (Packard) are added in each well. The plates are incubated 15 min on an orbital shaker and then counted with a TopCount™ for 1 min/well.
as §1

5HT2A [6] = type: cell-based; details: result in words
mice = test: Head-twitch response (HTR) in mice; type: in vivo; details: hallucinogenic potential
5HT2A [7] = details: result in words

SMILES	Neurite Average Length @ 10 μM (Rat cortical neurons [1])	Neurite Branch Points: @ 10 μM (Rat cortical neurons [1])	pEC50 (5HT2A [2])	pEC50 (5HT2A [3])	Increase in Neurite Length (Rat cortical neurons [4])	Increase in Neurite Number (Rat cortical neurons [4])	pIC50 (5HT2A [5])	activation of 5HT2A sensor assay in agonist mode (5HT2A [6])	head-twitch response (HTR) (mice)	competition with 5-HT in 5HT2A sensor assay in antagonist mode (5HT2A [7])
COc1ccc2c(ccn2CCN(C)C)n1 [Example 3, 2-(5-methoxy-1H-pyrrolo[3,2-b]pyridin-1-yl)-N,N-dimethylethan-1-amine]	B (100%-200% vehicle)	A (>200% vehicle)	< 5.00	< 3.96	A	B	6.00 to 7.00	–	–	–
COc1cc2ccn(CCN(C)C)c2cn1 [Example 4, 2-(5-methoxy-1H-pyrrolo[2,3-c]pyridin-1-yl)-N,N-dimethylethan-1-amine]	B (100%-200% vehicle)	B (100%-200% vehicle)	< 5.00	< 3.96	A	A	5.00 to 6.00	–	–	–
COc1cnc2c(ccn2CCN(C)C)c1 [Example 5, 2-(5-methoxy-1H-pyrrolo[2,3-b]pyridin-1-yl)-N,N-dimethylethan-1-amine]	B (100%-200% vehicle)	C (<100% vehicle)	< 5.00	< 3.96	B	B	6.00 to 7.00	–	–	–
COc1ccc2[nH]cc(CCN(C)C)c2c1 [Example 5-MeO-DMT]	–	–	–	–	–	–	–	activate the 5HT2A sensor assay in agonist mode	produces a robust, dose-dependent head-twitch response	–
CN(C)CCn1ccc2cncnc21 [Example 6, N,N-dimethyl-2-(7H-pyrrolo[2,3-d]pyrimidin-7-yl)ethan-1-amine]	A (>200% vehicle)	A (>200% vehicle)	< 5.00	< 3.96	B	B	5.00 to 6.00	–	–	–
COc1ccc2c(CCN(C)C)c[nH]c2c1 [Example 6-MeO-DMT]	–	–	–	–	–	–	–	do not activate the 5HT2A sensor assay in agonist mode	does not produce a HTR	compete off 5-HT
CN(C)CCn1ccc2cnccc21 [Example 7, N,N-dimethyl-2-(1H-pyrrolo[3,2-c]pyridin-1-yl)ethan-1-amine]	B (100%-200% vehicle)	A (>200% vehicle)	< 5.00	< 3.96	A	B	< 5.00	–	–	–
COc1ccc2c(c1)CCN2CCN(C)C [Example 8, 2-(5-methoxyindolin-1-yl)-N,N-dimethylethan-1-amine]	B (100%-200% vehicle)	A (>200% vehicle)	< 5.00	< 3.96	A	B	< 5.00	–	–	–
